The values that follow come from patent US20190054135A1, “PLANT OR MICROORGANISM-DERIVED CAROTENOID-OXYGEN COPOLYMER COMPOSITIONS, METHODS OF IDENTIFYING, QUANTIFYING AND PRODUCING SAME AND USES THEREOF” (Avivagen Inc., priority 2016, published 2019).

Series [1] is described as follows: solubility as noted during extraction and precipitation. The note with it: pH 12-13. It counts as physicochemical. The protocol:
Purification and concentration of GA was achieved using chloroform. The chloroform extract contained a complex mixture of substances, including carotenoids and carboxylic acids.
Indeed, addition of hexanes to an ethyl acetate extract of carrot powder #1 yielded a brown precipitate. Redissolving the recovered solid in ethyl acetate and precipitating again with hexanes and repeating the procedure gave a brown solid, which, at ca. 0.7 mg/g, was about 1.4 times the estimated OxPVA level, well within the anticipated range for the GA-based estimate (see Isolated Polymer and Polymer/OxPVA columns in Table 2). A similar ratio (1.6) was found for carrot powder #2, for which the yield of copolymer was around half that of carrot powder #1, in line with the respective relative amounts of GA. Confirmation that the isolated solid is largely composed of carotenoid-oxygen copolymer products was provided by comparison of elemental composition, IR, UV-Vis, GPC and GC-MS thermal decomposition data with the corresponding data for the OxBC polymer.

A further series concerns prostate carcinogenesis. The note with it: rat model of prostate carcinogenesis; cited from earlier work.

`CC(=O)CCCC(C)(C)C(=O)O` [GA, geronic acid]: the solubility in water entry in series [1] is listed as “soluble in water”.

For `CC(C)=CCC/C(C)=C/C=C/C(C)=C/C=C/C(C)=C/C=C/C=C(C)/C=C/C=C(C)/C=C/C=C(\C)CCC=C(C)C` [lycopene], in the series on prostate carcinogenesis, the “inhibition of prostate carcinogenesis” value was “not lycopene alone inhibited carcinogenesis”.
